Measured values from paper PMC6920794, “Evaluation of Novel Chalcone-Thiosemicarbazones Derivatives as Potential Anti-Leishmania amazonensis Agents and Its HSA Binding Studies” (Biomolecules, 2019).
Where two headings read alike, the source gives them in different places.

Experiments:
[1] = tested on: L. amazonensis intracellular amastigotes; test: Intracellular amastigotes assay in infected macrophages; assay type: cell-based, Leishmania amazonensis
Procedure: Peritoneal macrophages were obtained BALB/c mice with cold Roswell Park Memorial Institute (RPMI) 1640 medium (Sigma Aldrich, St. Louis, MO, USA) supplemented as above. The cell suspension was adjusted to 1 × 10^6 macrophage/mL and incubated in a LAB-TEK 8-chamber slide (Nunc, Roskilde, Denmark) at 310K and 5% CO2 for 1 h. Non-adherent cells were removed and stationary-phase L. amazonensis promastigotes were added at a 3:1 parasite/macrophage ratio. The cultures were incubated for a further 4 h, and free parasites were removed. The chambers were washed, and the monolayers were incubated with the compounds for 48 h. Infected macrophages incubated only in the culture medium were used as controls to compare with the infected treated macrophages. […] The cultures were fixed in methanol and stained with the hematological system Instant Prov (Newprov®, Curitiba, Brazil). The slides were examined by light microscopy, and the number of infected macrophages and the mean number of parasites per macrophage were determined in 100 cells counted. The experiments were performed twice in triplicate. The percentage of infected macrophages was calculated by dividing the number of infected macrophages by the total number of macrophages (infected and uninfected) counted on the slides, multiplied by 100. To determine the infection index, the percentage of infected macrophages was multiplied by the mean number of parasites per macrophage. The percentage inhibition of infection was calculated by multiplying the difference between the infection index of the control and the compound by 100 and dividing by the infection index (IF) of the control using the Equation (1):IF = % infected cells × amastigotes number/total number of macrophages(1) The IC50 ± SD (SD: standard deviation) values were obtained by a sigmoidal model using Origin 6.0 with statistical error limits up to 10%. All tests were conducted in duplicate for each concentration, and two independent assays were performed.

[2] = target: T1, human serum albumin (HSA) (Homo sapiens, UniProt P02768); test: HSA binding, steady-state fluorescence quenching; conditions: for KSV Stern-Volmer quenching constant: PBS pH 7.4
T1 construct: purchased Sigma Aldrich, St. Louis, MO, USA
Procedure: The chemicals HSA and PBS buffer were purchased from Sigma Aldrich, St. Louis, MO, USA and the pH of buffer solution was checked (pH = 7.40). Jasco J-815 optical spectrometer (Jasco Easton, MD, USA) was used as equipment for steady-state fluorescence and circular dichroism (CD) spectra measurements and a thermostatic cuvette holder Jasco PFD-425S15F (Jasco Easton, MD, USA) was applied for control of temperature in the quartz cell (1.0 cm optical path). All spectra were recorded as the average of three scans with appropriate background corrections. For steady-state fluorescence measurements it was applied 305–450 nm range as emission wavelength (λexc = 295 nm) at 289K, 296K, 303K and 310K. First, it was recorded spectra for HSA solution (1.00 × 10^−5 M, in PBS) and then it was added manually the compound 5e, achieving final ligand concentrations of 0.35; 0.70; 1.05; 1.40; 1.74; 2.09; 2.44; and 2.78 × 10^−5 M.
In order to delete the possible absorption contribution of the compound 5e in the steady-state fluorescence results, inner filter effect was applied, according to the Equation 2 [33]:(2) Fcor=FObs10^[Aex+Aem/2] where Fcor and Fobs are the corrected and observed fluorescence intensity values, while Aex and Aem represent the absorbance value at the excitation (λ = 295 nm: ε = 6,235 cm^−1M^−1 in PBS) and emission wavelengths (λ = 340 nm: ε = 4,550 cm^−1M^−1 in PBS).
The steady-state fluorescence results for the interaction HSA:5e were analyzed according to Stern-Volmer (Equation 3), double logarithmic (Equation 4), van’t Hoff (Equation 5) and Gibbs’ free energy (Equation 6) approximations:(3) F0/F=1+Ksv[Q]=1+kqτ0[Q] (4) log(F0−F/F)=logKa+nlog[Q] (5) lnKa=−ΔH°/RT+ΔS°/R (6) ΔG°=ΔH°−TΔS° where F0 and F are the steady-state fluorescence intensities of HSA in the absence and presence of 5e, respectively. [Q], KSV and kq are the 5e concentration, Stern-Volmer quenching constant and bimolecular quenching rate constant, respectively. τ0 is the experimental fluorescence lifetime of HSA in the absence 5e (5.98 ± 0.15) × 10^−9 s. Ka and ƒ are the binding constant and fraction of the initial fluorescence intensity corresponding to the fluorophore which is accessible by the quencher (f ≈ 1.00), respectively. ΔH°, ΔS° and ΔG° are the enthalpy, entropy and Gibbs’ free energy change, respectively. T and R are the temperature (289 K, 296 K, 303 K and 310 K) and gas constant (8.3145 Jmol^−1K^−1), respectively. All quantitative values were expressed as “± SD” (obtained through three scans).

T1 sequence (P02768 25-609): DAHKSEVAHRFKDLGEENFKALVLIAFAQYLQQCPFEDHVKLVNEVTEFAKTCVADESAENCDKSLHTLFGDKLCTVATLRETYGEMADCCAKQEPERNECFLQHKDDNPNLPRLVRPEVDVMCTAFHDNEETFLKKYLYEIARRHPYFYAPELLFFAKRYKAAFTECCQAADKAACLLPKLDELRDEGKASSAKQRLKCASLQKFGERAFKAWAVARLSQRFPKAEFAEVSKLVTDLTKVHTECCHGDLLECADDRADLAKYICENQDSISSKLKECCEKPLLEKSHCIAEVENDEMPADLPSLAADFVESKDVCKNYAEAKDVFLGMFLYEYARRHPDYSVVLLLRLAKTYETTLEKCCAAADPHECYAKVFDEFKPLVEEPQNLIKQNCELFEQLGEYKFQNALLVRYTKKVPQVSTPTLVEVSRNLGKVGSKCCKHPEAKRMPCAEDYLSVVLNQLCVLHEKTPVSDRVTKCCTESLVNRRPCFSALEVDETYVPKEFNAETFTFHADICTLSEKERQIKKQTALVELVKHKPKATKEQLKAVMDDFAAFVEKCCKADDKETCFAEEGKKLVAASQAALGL

IC50 ([1]; Leishmania amazonensis, Peritoneal macrophage, in Mus musculus, 48 h, L. amazonensis-infected murine peritoneal macrophages, 48 h of culture): 4.47 ± 0.42 µM | n number of binding sites [2]: ~ 1 | kq bimolecular quenching rate constant ([2]; 289 K): 4.15e+12 M⁻¹ s⁻¹ | n number of binding sites ([2]; 289 K): 1.05 ± 0.01 | ΔG° Gibbs' free energy change ([2]; 289 K): −26.1 kJmol^−1 | KSV Stern-Volmer quenching constant ([2]; 289 K): 2.48 ± 0.52 ×10^4 M^−1 | Kd ([2]; 289 K, double logarithmic approximation, read-out: Ka binding constant (converted)): 19.4 µM | kq bimolecular quenching rate constant ([2]; 296 K): 4.16e+12 M⁻¹ s⁻¹ | n number of binding sites ([2]; 296 K): 1.07 ± 0.01 | ΔG° Gibbs' free energy change ([2]; 296 K): −26.6 kJmol^−1 | KSV Stern-Volmer quenching constant ([2]; 296 K): 2.49 ± 0.50 ×10^4 M^−1 | Kd ([2]; 296 K, double logarithmic approximation, read-out: Ka binding constant (converted)): 20.6 µM | kq bimolecular quenching rate constant ([2]; 303 K): 4.34e+12 M⁻¹ s⁻¹ | n number of binding sites ([2]; 303 K): 1.06 ± 0.01 | ΔG° Gibbs' free energy change ([2]; 303 K): −27.1 kJmol^−1 | KSV Stern-Volmer quenching constant ([2]; 303 K): 2.59 ± 0.51 ×10^4 M^−1 | Kd ([2]; 303 K, double logarithmic approximation, read-out: Ka binding constant (converted)): 21.9 µM | kq bimolecular quenching rate constant ([2]; 310 K): 4.6e+12 M⁻¹ s⁻¹ | n number of binding sites ([2]; 310 K): 1.05 ± 0.01 | ΔG° Gibbs' free energy change ([2]; 310 K): −27.6 kJmol^−1 | KSV Stern-Volmer quenching constant ([2]; 310 K): 2.75 ± 0.33 ×10^4 M^−1 | Kd ([2]; 310 K, double logarithmic approximation, read-out: Ka binding constant (converted)): 22.8 µM | Kd ([2]; all temperatures, read-out: Ka binding constant (order of magnitude)): ~100 µM | decrease of HSA fluorescence emission ([2]; maximum addition of the ligand 2.78 × 10^−5 M, HSA 1.00 × 10^−5 M): about 50% | ΔH° enthalpy change ([2]; van't Hoff plot, 289–310 K): −5.79 ± 0.27 kJmol^−1 | ΔS° entropy change ([2]; van't Hoff plot, 289–310 K): 7.02 ± 0.09 ×10^−2 kJmol^−1K^−1
Compound: NC(=S)N/N=C(\C=C\c1ccc(Cl)cc1)c1ccccc1 [Compound 5e, (1E,2E)-3-(4′-chlorophenyl)-1-phenylprop-2-en-1-one thiosemicarbazone]
Selectivity Index (SI) ([1]; SI = LD50/IC50 intracellular amastigotes): 7.27
